Legend:
[1] = 4-HNE trapping experiment (aldehyde adduct formation, Example 6); conditions: 4-HNE 1.5 eq; 20% Captisol in phosphate buffer pH 7.2; 24-h time period; LCMS
Experimental: Each of compounds ADX-102, I-32, I-8, I-29, and I-31 ([…]) was tested for reactivity using 4-hydroxynonenal (4-HNE) (1.5 eq) as a model aldehyde. ADX-102 is also known as Reproxalap. Each compound was dissolved in a 20% solution of Captisol in phosphate buffer (1 mL, pH=7.2). Then, 4-HNE in ethanol (10 mg/mL solution) was added to the solution. The ensuing reaction was monitored by LCMS analysis. The relative ratio of experimental compound/4-HNE adduct to final composition was plotted against time to provide an indication of reaction rate and level of reaction completeness.

IL-2 = experiment: Acute LPS-induced sepsis in C57BL/6 mice: IL-2 cytokine detection assay; format: in vivo; conditions: 200 mpk PO; LPS-challenged mice, plasma at 6.5 h; unpaired t-test vs vehicle
Excerpt: FIG. 7 is a graph showing the results of an IL-2 cytokine detection assay in samples collected from mouse subjects after administration of compounds of the present disclosure.
The primary objective of this study was to collect plasma samples of lipopolysaccharide (LPS) challenged C57BL/6 mice after dose of test compounds to provide a cytokine profile as impacted by prophylactic treatments. This study models acute sepsis, which is a systemic inflammatory syndrome initiated by Gram-negative and Gram-positive bacteria and fungi which infect the lungs, abdomen, bloodstream, and renal or genitourinary tracts. Sepsis patients ultimately die of multiorgan failure which is caused by extensive tissue hypo-oxygenation due to ongoing microvascular leakage, disseminated intravascular coagulation, compromised energy production, and metabolic alterations. Sepsis is characterized by an early systemic inflammatory response phase featuring symptoms, such as tachycardia, fever, hyperventilation, and activation of the complement and coagulation cascades. However, it is now appreciated that a compensatory anti-inflammatory response phase follows, characterized by neuroendocrine-mediated immunosuppression. […]
(§1) A 32-plex cytokine panel was obtained from Eve Technologies. Each cytokine was assessed based against a 7 point curve range in duplicate. […]

IL-6 = experiment: Acute LPS-induced sepsis in C57BL/6 mice: IL-6 cytokine detection assay; format: in vivo; conditions: 200 mpk PO; LPS-challenged mice, plasma at 6.5 h; unpaired t-test vs vehicle
Excerpt: FIG. 11 is a graph showing the results of an IL-6 cytokine detection assay in samples collected from mouse subjects after administration of compounds of the present disclosure.
(§2) The primary objective of this study was to collect plasma samples of lipopolysaccharide (LPS) challenged C57BL/6 mice after dose of test compounds to provide a cytokine profile as impacted by prophylactic treatments. This study models acute sepsis, which is a systemic inflammatory syndrome initiated by Gram-negative and Gram-positive bacteria and fungi which infect the lungs, abdomen, bloodstream, and renal or genitourinary tracts. Sepsis patients ultimately die of multiorgan failure which is caused by extensive tissue hypo-oxygenation due to ongoing microvascular leakage, disseminated intravascular coagulation, compromised energy production, and metabolic alterations. Sepsis is characterized by an early systemic inflammatory response phase featuring symptoms, such as tachycardia, fever, hyperventilation, and activation of the complement and coagulation cascades. However, it is now appreciated that a compensatory anti-inflammatory response phase follows, characterized by neuroendocrine-mediated immunosuppression. Since these processes are the result of interaction between cells of inflammation and organs, investigation of the treatment of this syndrome requires the use of intact animal models. The use of ten mice per group allows useful statistical modelling of the results.
(§3) For the data shown in Table 2A, 103 mice (female, 18-22 gram, C57BL/6) were purchased from ENVIGO. The mice were housed in 20 cages of 5 mice per cage with 1 cage of 3 mice as extra. The cages had filter tops and autoclaved bedding, and the animals were placed in quarantine with daily inspection. The treatment groups are detailed in Table 2A below. 10 mice were included in each group. The mice were dosed by oral gavage (PO) at 10 ml/kg as per the table below. MC=methyl cellulose.
(§4) For the data shown in Table 2B, 185 mice (female, 18-22 gram, C57BL/6) were purchased from ENVIGO. The mice were housed in 37 cages of 5 mice per cage. The cages had filter tops and autoclaved bedding, and the animals were placed in quarantine with daily inspection. The treatment groups are detailed in Table 2B below. 10 mice were included in each group. The mice were dosed by oral gavage (P0) at 10 ml/kg as per the table below. MC=methyl cellulose.
(§5) At T=0 h, the mice were dosed with one of the test compounds as described in the above table.
(§6) At T=0.5 h, the mice were injected IP with 1.5 mg/kg […] (Sigma).
(§7) At T=6.5 h, all mice were anesthetized and exsanguinated into pre-chilled EDTA-treated tubes. […]
as §1

IL-9 = experiment: Acute LPS-induced sepsis in C57BL/6 mice: IL-9 cytokine detection assay; format: in vivo; conditions: 200 mpk PO; LPS-challenged mice, plasma at 6.5 h; unpaired t-test vs vehicle
Excerpt: FIG. 13 is a graph showing the results of an IL-9 cytokine detection assay in samples collected from mouse subjects after administration of compounds of the present disclosure.
as §2
For the data shown in Table 2A, 103 mice (female, 18-22 gram, C57BL/6) were purchased from ENVIGO. The mice were housed in 20 cages of 5 mice per cage with 1 cage of 3 mice as extra. The cages had filter tops and autoclaved bedding, and the animals were placed in quarantine with daily inspection. The treatment groups are detailed in Table 2A below. 10 mice were included in each group. The mice were dosed by oral gavage (PO) at 10 ml/kg as per the table below. MC=methyl cellulose. […]
as §1

IL-12(p70) = experiment: Acute LPS-induced sepsis in C57BL/6 mice: IL-12(p70) cytokine detection assay; format: in vivo; conditions: LPS-challenged mice, plasma at 6.5 h, unpaired t-test vs vehicle
Excerpt: FIG. 16 is a graph showing the results of an IL-12(p70) cytokine detection assay in samples collected from mouse subjects after administration of compounds of the present disclosure.
as §2
(§8) For the data shown in Table 2A, 103 mice (female, 18-22 gram, C57BL/6) were purchased from ENVIGO. The mice were housed in 20 cages of 5 mice per cage with 1 cage of 3 mice as extra. The cages had filter tops and autoclaved bedding, and the animals were placed in quarantine with daily inspection. The treatment groups are detailed in Table 2A below. 10 mice were included in each group. […] MC=methyl cellulose.
as §4, §5, §6
(§9) At T=6.5 h, all mice were anesthetized and exsanguinated into pre-chilled EDTA-treated tubes. The blood was processed to plasma which was stored in labeled 0.5 polypropylene snap-cap tubes (0.5 mL Eppendorf Safe-Lock Tubes (Fisher Scientific) at −80° C.
(§10) Preparation of vehicle: 1.0 gram of methyl cellulose (Sigma) was dissolved in 200 mL of water (USP purified) to make a solution of 0.5% methyl cellulose in water. Preparation of LPS solution: 6 mg of LPS (from Escherichia Coli 055:B5, Cat #L2880, Sigma Lot #057m4013) was dissolved in 20 ml of saline to give a LPS solution of 0.3 mg/ml. All mice were injected with 5 ml/kg (1.5 mg/kg) at the scheduled time by intraperitoneal injection.
A 32-plex cytokine panel was obtained from Eve Technologies. Each cytokine was assessed based against a 7 point curve range in duplicate. The average of the two replicate analyses was used for statistics. Unpaired t-tests were performed using Excel™ contrasting vehicle against each treatment group. One star indicates P<0.05. […]

KC = experiment: Acute LPS-induced sepsis in C57BL/6 mice: KC cytokine detection assay; format: in vivo; conditions: 200 mpk PO; LPS-challenged mice, plasma at 6.5 h; unpaired t-test vs vehicle
Excerpt: FIG. 20 is a graph showing the results of a KC cytokine detection assay in samples collected from mouse subjects after administration of compounds of the present disclosure.
as §2, §3, §4, §5, §6, §9, §10
A 32-plex cytokine panel was obtained from Eve Technologies. Each cytokine was assessed based against a 7 point curve range in duplicate. The average of the two replicate analyses was used for statistics. Unpaired t-tests were performed using Excel™ contrasting vehicle against each treatment group. One star indicates P<0.05. Two stars indicates P<0.01. Three stars indicates P<0.001. Four stars indicates P<0.0001. Most, but not all, statistically significant results are indicated with star(s).

[2] = system: leukemia inhibitory factor (LIF); experiment: Acute LPS-induced sepsis in C57BL/6 mice: leukemia inhibitory factor (LIF) cytokine detection assay; format: in vivo; conditions: 200 mpk PO; LPS-challenged mice, plasma at 6.5 h; unpaired t-test vs vehicle
Excerpt: FIG. 21 is a graph showing the results of a leukemia inhibitory factor (LIF) cytokine detection assay in samples collected from mouse subjects after administration of compounds of the present disclosure. LIF is an interleukin 6 class cytokine that affects cell growth by inhibiting differentiation.
as §2, §3, §4, §5, §6, §9, §10, §1

MIP2(CXCL2) = experiment: Acute LPS-induced sepsis in C57BL/6 mice: MIP2(CXCL2) cytokine detection assay; format: in vivo; conditions: 200 mpk PO; LPS-challenged mice, plasma at 6.5 h; unpaired t-test vs vehicle
Excerpt: FIG. 27 is a graph showing the results of a MIP2(CXCL2) cytokine detection assay in samples collected from mouse subjects after administration of compounds of the present disclosure.
as §2, §8, §4, §5, §6, §7, §1

eotaxin = experiment: Acute LPS-induced sepsis in C57BL/6 mice: eotaxin cytokine detection assay; format: in vivo; conditions: 100 mpk IP; LPS-challenged mice, plasma at 6.5 h; unpaired t-test vs vehicle
G-CSF = experiment: Acute LPS-induced sepsis in C57BL/6 mice: G-CSF cytokine detection assay; format: in vivo; conditions: 100 mpk IP; LPS-challenged mice, plasma at 6.5 h; unpaired t-test vs vehicle
IFNγ = experiment: Acute LPS-induced sepsis in C57BL/6 mice: IFNγ cytokine detection assay; format: in vivo; conditions: 100 mpk IP; LPS-challenged mice, plasma at 6.5 h; unpaired t-test vs vehicle
IL-3 = experiment: Acute LPS-induced sepsis in C57BL/6 mice: IL-3 cytokine detection assay; format: in vivo; conditions: 100 mpk IP; LPS-challenged mice, plasma at 6.5 h; unpaired t-test vs vehicle
IL-7 = experiment: Acute LPS-induced sepsis in C57BL/6 mice: IL-7 cytokine detection assay; format: in vivo; conditions: 100 mpk IP; LPS-challenged mice, plasma at 6.5 h; unpaired t-test vs vehicle
IL-10 = experiment: Acute LPS-induced sepsis in C57BL/6 mice: IL-10 cytokine detection assay; format: in vivo; conditions: 100 mpk IP; LPS-challenged mice, plasma at 6.5 h; unpaired t-test vs vehicle
IL-15 = experiment: Acute LPS-induced sepsis in C57BL/6 mice: IL-15 cytokine detection assay; format: in vivo; conditions: 100 mpk IP; LPS-challenged mice, plasma at 6.5 h; unpaired t-test vs vehicle
IL-17 = experiment: Acute LPS-induced sepsis in C57BL/6 mice: IL-17 cytokine detection assay; format: in vivo; conditions: 100 mpk IP; LPS-challenged mice, plasma at 6.5 h; unpaired t-test vs vehicle
Excerpt: FIG. 19 is a graph showing the results of an IL-17 cytokine detection assay in samples collected from mouse subjects after administration of compounds of the present disclosure.
as §2, §8, §4, §5, §6, §7, §1

MIP-1a(CCL3) = experiment: Acute LPS-induced sepsis in C57BL/6 mice: MIP-1a(CCL3) cytokine detection assay; format: in vivo; conditions: 100 mpk IP; LPS-challenged mice, plasma at 6.5 h; unpaired t-test vs vehicle

Compound	4-HNE binding (rate of formation of aldehyde adduct) [1]	IL-2: significant cytokine change vs. vehicle (IL-2)	IL-6: significant cytokine change vs. vehicle (IL-6)	IL-9: significant cytokine change vs. vehicle (IL-9)	IL-12 (p70): significant cytokine change vs. vehicle (IL-12(p70); 200 mpk PO)	KC: significant cytokine change vs. vehicle (KC)	LIF: significant cytokine change vs. vehicle [2]	MIP-2: significant cytokine change vs. vehicle (MIP2(CXCL2))	Eotaxin: significant cytokine change vs. vehicle (eotaxin)	G-CSF: significant cytokine change vs. vehicle (G-CSF)	IFNy: significant cytokine change vs. vehicle (IFNγ)	IL-3: significant cytokine change vs. vehicle (IL-3)	IL-7: significant cytokine change vs. vehicle (IL-7)	IL-10: significant cytokine change vs. vehicle (IL-10)	IL-12 (p70): significant cytokine change vs. vehicle (IL-12(p70); 100 mpk IP)	IL-15: significant cytokine change vs. vehicle (IL-15)	IL-17: significant cytokine change vs. vehicle (IL-17)	MIP-1a: significant cytokine change vs. vehicle (MIP-1a(CCL3))
CC(C)(O)c1cc2c(cc1N)OCO2 [Compound I-29]	the best binding	** (Two stars indicates P<0.01)	** (Two stars indicates P<0.01)	*** (Three stars indicates P<0.001)	**** (Four stars indicates P<0.0001)	* (One star indicates P<0.05)	**** (Four stars indicates P<0.0001)	* (One star indicates P<0.05)										
CC(O)(c1sc2ccccc2c1N)C(F)(F)F (stereo not drawn) [Compound I-1, 2-(3-aminobenzo[b]thiophen-2-yl)-1,1,1-trifluoropropan-2-ol]									* (One star indicates P<0.05)	* (One star indicates P<0.05)	**** (Four stars indicates P<0.0001)	**** (Four stars indicates P<0.0001)	* (One star indicates P<0.05)	**** (Four stars indicates P<0.0001)	* (One star indicates P<0.05)	** (Two stars indicates P<0.01)	*** (Three stars indicates P<0.001)	** (Two stars indicates P<0.01)

— patent US20240383870A1, “HETEROCYCLIC ALDEHYDE TRAPPING COMPOUNDS AND USES THEREOF” (Aldeyra Therapeutics, Inc., priority 2021, published 2024)
